Data as given in ChEMBL document CHEMBL1201862, “PubChem BioAssay data set” (2004).
Active and inactive are the calls of the source. Cut-off read from the data, not from the text of the source, for most assays here: actives have a measured EC50 and inactives only a lower limit.

Assays:
[1] = target: Aryl hydrocarbon receptor (Homo sapiens, UniProt P35869); test: Luminescence-based cell-based high throughput dose response assay for activators of the Aryl Hydrocarbon Receptor (AHR). [Related pubchem assays: 2796 (Primary screen (AHR activators in singlicate)), 2845 (Confirmation screen (AHR activators in triplicate)), 434939 (Counterscreen (PXR activators in triplicate)), 2804 (Summary (AHR activators))]; type: ADME
Aryl hydrocarbon receptor, sequence (P35869 whole entry): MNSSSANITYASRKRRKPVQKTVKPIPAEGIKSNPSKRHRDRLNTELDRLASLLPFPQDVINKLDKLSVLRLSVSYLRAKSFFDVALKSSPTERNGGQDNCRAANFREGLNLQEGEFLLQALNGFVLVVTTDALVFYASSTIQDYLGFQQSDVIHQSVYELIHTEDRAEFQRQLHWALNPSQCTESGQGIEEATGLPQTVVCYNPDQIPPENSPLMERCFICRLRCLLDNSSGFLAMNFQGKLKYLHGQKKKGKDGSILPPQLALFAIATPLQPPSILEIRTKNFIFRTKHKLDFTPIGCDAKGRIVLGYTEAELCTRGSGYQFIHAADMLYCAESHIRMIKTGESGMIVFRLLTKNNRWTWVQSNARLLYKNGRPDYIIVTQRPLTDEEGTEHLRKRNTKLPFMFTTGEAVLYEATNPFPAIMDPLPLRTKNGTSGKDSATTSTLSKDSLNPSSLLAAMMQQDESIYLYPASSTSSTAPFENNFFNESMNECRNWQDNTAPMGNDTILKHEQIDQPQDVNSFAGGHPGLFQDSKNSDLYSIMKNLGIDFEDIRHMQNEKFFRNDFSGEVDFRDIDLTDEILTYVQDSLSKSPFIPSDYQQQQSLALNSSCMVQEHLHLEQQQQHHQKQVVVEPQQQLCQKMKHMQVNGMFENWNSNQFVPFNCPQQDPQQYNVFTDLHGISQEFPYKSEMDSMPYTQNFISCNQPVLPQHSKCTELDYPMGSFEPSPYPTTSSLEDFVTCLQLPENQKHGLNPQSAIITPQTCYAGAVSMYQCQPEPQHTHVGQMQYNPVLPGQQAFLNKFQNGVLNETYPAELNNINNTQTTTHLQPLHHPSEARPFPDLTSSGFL

[2] = target: T1, Adenosylmethionine-8-amino-7-oxononanoate aminotransferase (Mycobacterium tuberculosis, UniProt P9WQ81); test: Mycobacterium tuberculosis BioA enzyme inhibitor Measured in Biochemical System Using Plate Reader - 2163-02_Inhibitor_Dose_CherryPick_Activity.; type: functional, Mycobacterium tuberculosis UT205
T1 sequence (P9WQ81 whole entry): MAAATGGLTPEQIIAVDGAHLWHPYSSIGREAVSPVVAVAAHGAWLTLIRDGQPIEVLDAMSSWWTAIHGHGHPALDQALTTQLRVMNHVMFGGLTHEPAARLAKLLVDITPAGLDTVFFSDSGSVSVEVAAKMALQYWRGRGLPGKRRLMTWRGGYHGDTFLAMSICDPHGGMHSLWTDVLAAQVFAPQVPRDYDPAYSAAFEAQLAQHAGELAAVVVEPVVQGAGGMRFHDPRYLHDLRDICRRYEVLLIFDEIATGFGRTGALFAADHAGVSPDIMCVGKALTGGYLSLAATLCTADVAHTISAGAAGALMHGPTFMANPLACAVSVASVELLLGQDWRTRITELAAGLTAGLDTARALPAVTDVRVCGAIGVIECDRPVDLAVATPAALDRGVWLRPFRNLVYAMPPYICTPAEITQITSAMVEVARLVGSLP

[3] = target: Potassium voltage-gated channel subfamily KQT member 2 (Rattus norvegicus, UniProt O88943, W236L); test: potentiation of rat KCNQ2 current – cell-based, automated electrophysiology, mechanism study for KCNQ2 potentiator project, dose response (AID 2603); type: functional
Potassium voltage-gated channel subfamily KQT member 2, sequence (O88943 whole entry W236L): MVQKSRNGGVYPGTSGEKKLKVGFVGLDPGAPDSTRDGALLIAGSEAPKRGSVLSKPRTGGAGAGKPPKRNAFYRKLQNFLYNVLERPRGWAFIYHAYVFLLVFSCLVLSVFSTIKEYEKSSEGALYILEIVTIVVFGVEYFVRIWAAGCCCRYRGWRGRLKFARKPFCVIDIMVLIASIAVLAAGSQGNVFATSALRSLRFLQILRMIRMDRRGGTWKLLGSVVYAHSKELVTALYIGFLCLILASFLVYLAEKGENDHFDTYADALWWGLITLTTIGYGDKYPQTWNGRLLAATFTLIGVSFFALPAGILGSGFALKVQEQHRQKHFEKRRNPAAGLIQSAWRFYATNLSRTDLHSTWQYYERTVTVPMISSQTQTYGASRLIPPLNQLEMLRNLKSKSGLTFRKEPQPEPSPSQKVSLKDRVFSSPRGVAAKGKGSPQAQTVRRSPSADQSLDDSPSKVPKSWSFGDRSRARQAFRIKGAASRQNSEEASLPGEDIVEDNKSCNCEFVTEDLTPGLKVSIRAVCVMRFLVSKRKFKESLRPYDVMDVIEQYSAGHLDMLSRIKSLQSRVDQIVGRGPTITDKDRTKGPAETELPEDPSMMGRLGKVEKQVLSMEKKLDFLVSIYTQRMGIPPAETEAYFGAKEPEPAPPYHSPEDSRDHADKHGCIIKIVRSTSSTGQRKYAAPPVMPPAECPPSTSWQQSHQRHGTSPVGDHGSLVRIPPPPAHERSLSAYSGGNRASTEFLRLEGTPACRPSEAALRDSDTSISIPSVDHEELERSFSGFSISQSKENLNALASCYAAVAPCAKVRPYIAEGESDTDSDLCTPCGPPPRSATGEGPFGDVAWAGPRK

Vero = test: mammalian cell viability reduction – secondary assay, cytotoxicity control for West Nile virus antiviral project, dose response (AID 1650); type: functional; details: Chlorocebus sabaeus
[4] = NIH3T3 cell viability loss – ATP luminescence, mouse fibroblasts, counter-screen, dose response (AID 2010); type: functional, cell-based;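 note: cells exposed to compound for about 90 hours before reading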
Streptococcus = test: GAS UMAA2166 growth inhibition – luminescence, BacTiterGlo, counter-screen for streptokinase expression inhibitor project, dose response (AID 1915); type: functional, organism-based;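 note: potency for reduction of bacterial viability or growth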
Streptokinase A = target: T2, Streptokinase A (Streptococcus pyogenes serotype M1, UniProt P10520); test: viability-normalized secreted streptokinase activity reduction – plasminogen activation absorbance, OD405, dose response (AID 1914); type: functional, Streptococcus pyogenes M1 GAS;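 note: secreted streptokinase activity via plasminogen activation per viability signal from cell pellet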
T2 sequence (P10520 whole entry): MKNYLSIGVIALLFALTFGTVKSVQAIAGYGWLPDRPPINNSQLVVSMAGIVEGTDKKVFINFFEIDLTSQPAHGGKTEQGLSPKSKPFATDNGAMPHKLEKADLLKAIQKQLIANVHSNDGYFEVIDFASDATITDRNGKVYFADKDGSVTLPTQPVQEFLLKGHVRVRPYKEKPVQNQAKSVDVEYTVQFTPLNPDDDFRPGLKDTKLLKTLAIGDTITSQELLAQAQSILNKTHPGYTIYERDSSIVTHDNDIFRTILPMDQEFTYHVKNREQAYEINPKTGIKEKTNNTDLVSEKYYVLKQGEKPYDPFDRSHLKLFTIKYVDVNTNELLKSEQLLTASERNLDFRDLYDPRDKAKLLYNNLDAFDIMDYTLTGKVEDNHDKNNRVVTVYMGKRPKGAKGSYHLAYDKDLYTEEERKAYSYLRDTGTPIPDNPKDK

[5] = Trypanosoma cruzi growth suppression in host cells – NIH3T3 host cells, beta-gal luminescence, confirmation (AID 2044); type: functional, cell-based;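 note: intracellular parasites grown in NIH/3T3 mouse fibroblasts as host cells; luminescent beta-galactosidase reporter signal from transgenic T. cruzi replicating inside host cells; inhibitors lower the luminescence signal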
[6] = test system: Streptococcus sp. 'group A'; test: Streptococcus pyogenes SK(-)GAS viability under kanamycin – luminescence, BacTiterGlo, confirmation, counter-screen for streptokinase expression inhibitor project, dose response (AID 1900); type: functional, organism-based
H4 = test: Luminescence Cell-Based Dose Response HTS to Identify Activators of 5'UTR Stem-Loop Driven Prion Protein mRNA Translation in H4 Neuroglioblastoma Cells. [Related pubchem assays: 1829 (Project Summary), 1814 (Primary HTS)]; type: functional; details: Homo sapiens
[7] = Luminescence Cell-Based Dose Response to Identify Activators of Luciferase Translation or Activity in H4-C Neuroglioblastoma Cells. [Related pubchem assays: 1829 (Project Summary), 1814 (Primary HTS)]; type: functional
[8] = Luminescence Cell-Based Dose Confirmation to Identify Activators of 5'UTR Stem-Loop Driven Alpha-Synuclein mRNA Translation in H4 Neuroglioblastoma Cells. [Related pubchem assays: 1829 (Project Summary), 1814 (Primary HTS)]; type: functional
[9] = Luminescence Cell-Based Dose Response to Identify Activators of 5'UTR Stem-Loop Driven Prion Protein mRNA Translation in H4-C Neuroglioblastoma Cells. [Related pubchem assays: 1829 (Project Summary), 1814 (Primary HTS)]; type: functional
[10] = Luminescence Cell-Based Dose Confirmation HTS to Identify Activators of 5'UTR Stem-Loop Driven Alpha-Synuclein mRNA Translation in H4 Neuroglioblastoma Cells. [Related pubchem assays: 1829 (Project Summary), 1814 (Primary HTS)]; type: functional
[11] = target: Sphingosine 1-phosphate receptor 3 (Homo sapiens, UniProt Q99500); test: Dose Response Cell-Based Assay for Agonists of the Sphingosine 1-Phosphate Receptor 3 (S1P3): Purchased Analogues. [Related pubchem assays: 373, 439 ]; type: functional
Sphingosine 1-phosphate receptor 3, sequence (Q99500 whole entry): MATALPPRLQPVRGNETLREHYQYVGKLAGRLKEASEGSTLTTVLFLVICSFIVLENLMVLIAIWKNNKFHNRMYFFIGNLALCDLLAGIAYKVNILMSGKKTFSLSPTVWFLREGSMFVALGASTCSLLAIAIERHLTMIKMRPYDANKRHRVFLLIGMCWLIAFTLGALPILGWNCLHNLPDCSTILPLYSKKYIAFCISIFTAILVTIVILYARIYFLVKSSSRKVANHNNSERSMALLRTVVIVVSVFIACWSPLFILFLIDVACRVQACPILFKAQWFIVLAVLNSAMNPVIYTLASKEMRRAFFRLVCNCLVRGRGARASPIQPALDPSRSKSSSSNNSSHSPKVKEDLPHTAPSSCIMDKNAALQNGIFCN

[12] = target: Sphingosine 1-phosphate receptor 1 (Homo sapiens, UniProt P21453); test: Dose Response Cell-Based Assay for Agonists of the Sphingosine 1-Phosphate Receptor 1 (S1P1): Purchased Analogues. [Related pubchem assays: 1192, 373, 439 ]; type: functional
Sphingosine 1-phosphate receptor 1, sequence (P21453 whole entry): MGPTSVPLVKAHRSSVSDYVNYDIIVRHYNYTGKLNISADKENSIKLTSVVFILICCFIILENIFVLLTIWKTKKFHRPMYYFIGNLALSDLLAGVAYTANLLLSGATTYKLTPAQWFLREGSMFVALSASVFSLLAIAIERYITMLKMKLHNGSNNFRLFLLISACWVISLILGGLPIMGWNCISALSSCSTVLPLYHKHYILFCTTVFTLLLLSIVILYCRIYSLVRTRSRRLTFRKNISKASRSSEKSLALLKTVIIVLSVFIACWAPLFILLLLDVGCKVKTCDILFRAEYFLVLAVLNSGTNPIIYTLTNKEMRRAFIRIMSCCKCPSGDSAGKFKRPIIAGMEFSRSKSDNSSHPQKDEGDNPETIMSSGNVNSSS

[13] = target: Sphingosine 1-phosphate receptor 2 (Homo sapiens, UniProt O95136); test: Dose Response Cell-Based Assay for Agonists of the Sphingosine 1-Phosphate Receptor 2 (S1P2): Purchased Analogues. [Related pubchem assays: 1192, 373, 439 ]; type: functional
Sphingosine 1-phosphate receptor 2, sequence (O95136 whole entry): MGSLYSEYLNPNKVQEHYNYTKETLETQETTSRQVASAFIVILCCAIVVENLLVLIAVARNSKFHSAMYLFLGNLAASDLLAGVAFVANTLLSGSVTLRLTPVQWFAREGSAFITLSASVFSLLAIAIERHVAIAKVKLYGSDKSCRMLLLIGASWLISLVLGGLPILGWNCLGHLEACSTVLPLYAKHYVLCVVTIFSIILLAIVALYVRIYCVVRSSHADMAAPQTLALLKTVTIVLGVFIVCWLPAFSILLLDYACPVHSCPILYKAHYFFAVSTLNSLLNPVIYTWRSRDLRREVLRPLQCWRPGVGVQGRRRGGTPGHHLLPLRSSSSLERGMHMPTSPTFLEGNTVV

Cc1ccc(-c2cc(-c3cccs3)[nH]n2)c(O)c1
EC50 [1]: 1.21 µM (active)

O=C(Nc1cccnc1)c1ccc(Cl)c(Cl)c1
AC50 [2]: 3.94 µM (active)
EC50 [3]: 26.2 µM (active)

O=C(Nc1ccc(OC(F)(F)F)cc1)N1CCN(c2ccnc3cc(Cl)ccc23)CC1
CC50 (Vero): 2.95 µM (active)
EC50 [4]: 14.4 µM (active)
EC50 (Streptococcus): > 150 µM (not active)
EC50 (Streptokinase A): 12.7 µM (active)
EC50 [5]: 2.06 µM (active)
EC50 [6]: 9.61 µM (active)

CCc1cc2c(=O)n3c(nc2s1)-c1[nH]c2ccc(OC)cc2c1CC3
EC50 (H4): 3.18 µM (active)
EC50 [7]: 0.354 µM (active)
EC50 [8]: 0.498 µM (active)
EC50 [9]: > 12 µM (not active)
EC50 [10]: < 0.1 µM (active)

O=C(NC1CCCCC1)c1cc(-c2ccccc2)on1
EC50 [11]: > 50 µM (not active)
EC50 [12]: 0.897 µM (active)
EC50 [13]: > 10 µM (not active)
